Experimental data from patent publication EP0638309A1, “Substances inhibiting proteic adp ribosilation suitable to prevent the diabetes mellitus complications” (ISTITUTO BIOCHIMICO ITALIANO GIOVANNI LORENZINI S.p.A., priority 1993, dated 1995).

Legend:
[1] = system: 5 YSY neuroblastoma; test: Myoinositol metabolism (accumulation and incorporation) in neuroblastoma cells cultured in glucose; format: cell-based; details: glucose 30 mM, substance 10⁻⁵ M; for Myoinositol Incorporation: fraction linked to the membranes
Description: A diabetic neuropathy in vitro model has been carried out using neuroblastoma cells cultured in chronic hyperglucosemia conditions. This condition causes the typical diabetes mellitus dismetabolic effects as the polyols (sorbitol) accumulation, the myoinositol reduction and the reduction of the Na pump functionality. […] et al. - Alan R., Liss. […] In the groups from 2) to 4) glucose (30 mM) has been added to the culture renewing the culture medium and then adding glucose every 72 hours, during a three weeks period. In the group 3), at the same time of the glucose, one of the substances inhibiting proteic ADP-ribosilation reported in the table 1 (amount 10^-5 M) has been added. In the group 4), at the same time of the glucose one of the substances non inhibiting proteic ADP-ribosilation reported in the table 1 (dermatan sulphate and tolrestat) in amount 10^-5 M has been added. On the experimental groups above described also the myoinositol metabolism alteration has been studied which has been valued by the method described by Yorek et al., in "Diabetes", pag. […]

[2] = Body weight and glycemia control in alloxan-diabetic rats; format: in vivo; details: diabetic animals 8 weeks after the diabetes induction, 10 mg/kg daily; for Glycemia: caudal vein blood before sacrifice
Description: The effectiveness verification of the substances inhibiting proteic ADP-ribosilation in preventing the diabetes mellitus complications has been carried out in vivo on rats in diabetes mellitus models induced by alloxan.
(§1) The diabetes has been induced in the rats of the groups from 2) to 5) by a single subcutaneous injection of 100 mg/kg of alloxan dissolved in pH 4.5 0.1 M citrate-phosphate buffer solution.
Groups 1) and 2) have been injected with an equivalent volume of physiologic solution.
(§2) The pharmacological treatment started 7 days after the diabetes induction and prosecuted until the sacrifice with daily administration.
The blood samples have been withdrawn at the caudal vein level before the animals sacrifice.

[3] = system: substance P axonal transport; test: Substance P axonal transport in ligated sciatic nerve of alloxan-diabetic rats; format: in vivo; details: for anterograde and retrograde accumulation of substance P, in words: 10 mg/kg daily; for substance P content, NSc: contralateral non-ligated sciatic nerve; for substance P content, NSc / substance P content, D / substance P content, P2 / substance P content, P1: ± ES; for substance P content, D: distal segment; for substance P content, P1: proximal segment contiguous to ligature
Text: The effectiveness verification of the substances inhibiting proteic ADP-ribosilation in preventing the diabetes mellitus complications has been carried out in vivo on rats in diabetes mellitus models induced by alloxan. With this purpose, […] substance P axonal transport in the five following experimental groups, each consisting of N° 8 rats: • 1) control group; • 2) diabetic rats group; • 3) diabetic rats group treated with vitamin K1 (substance inhibiting the proteic ADP-ribosilation); • 4) diabetic rats group treated with arachidic acid (substance inhibiting the proteic ADP-ribosilation); • 5) diabetic rats group treated with dermatan sulphate (substance non inhibiting proteic ADP-ribosilation).
The Sprague Dawley strain rats used, 250 gr weight, male sex, were supplied by Charles River.
as §1
The pharmacological treatment of the groups 3) and 5) respectivelly with vitamin K1 and dermatansulphate, has been carried out by intraperitoneal administration of said substances dissolved in physiologic solution at 10 mg/kg dose. […] Groups 1) and 2) have been injected with an equivalent volume of physiologic solution.
as §2
To estimate the axonal transport of substance P the accumulation of the substance P in three segments of sciatic nerve two millimeters long was estimated 24 hours from the ligature of the same nerve.
The operations of the sciatic nerve ligature, of the tissues withdrawal from the same and of substance P extraction from the tissues for the radioimmunologic dosage, have been carried out by the following way.
The animals were anaesthetised by intraperitoneal administration of 35 mg/kg of pentobarbital dissolved in 0.9% physiologic solution. After wright thigh epilation and cutis section the sciatic nerve was exposed at half thigh level (at least 0.8 cm from the popliteal cavity where the nerve ramifies). The ligature has been made by sterile silk thread which has been twice knotted to about half of the exposed nerve portion.
The sacrifice has been accomplished after 8 weeks from the diabetes induction, after 24 hours from the ligature.
Immediately after the sacrifice, in the former operation seat, the removal of the whole sciatic nerve has been made and finally from this the three segments each about 2 mm long have been withdrawn: segment P1 (proximal contiguous to the ligature); segment P2 (immediately above P1) and segment D (distal contiguous to the ligature), as it is shown in fig. 1.
The withdrawn tissues have been placed in polypropylene test-tubes held in ice and containing a volume of acetic acid 1 N in 10:1 ratio with the tissue weight. Then the tissues homogenization has been done by a continuous speed variation homogenizer (Heavy Stirrer, mod. 12) and a polytetrafluoroethylene pestle perfectly adherent to the test-tube walls. After the homogenate aliquots required for the tissue proteins dosage have been withdrawn (0.1 ml) the test-tubes have been immerged in a boiling water bath for 8-10 minutes, for inactivating the peptidases eventually still present in the samples, and then left for about 30 minutes at 4 °C for completely cooling.
The […] obtained by centrifugation of the homogenate at 40.000 x g for 10 minutes, has been lyophilized and the dry residue has been reconstituted in distilled water, stirred by vortex and centrifuged at 40.000 x g for 10 minutes. From the samples so reconstituted the suitable aliquots required for the substance P radioimmunological dosage have been withdrawn. […]

[4] = system: transducin; test: In vitro ADP-ribosilation of retina membrane proteins G from treated diabetic rats (autoradiogram); format: in vivo; details: retina membrane fraction of diabetic rats treated at 50 mg/kg
Text: A further experimentation on the silybin effect on the ADP-ribosilation of retina proteins G has been carried out. The evaluation of said proteins ribosilability has been performed by the method described by Duman et al. in J. Neurochem. (1991). pages 2124-2132.
For said experimentation the retinas withdrawn from the rats of the groups 1a), 2a) and 3a) used for the experimentation on the substance P axonal transport, were used.
The retinas have been homogenized and subdivided in cellular fractions and the membrane fraction has been selected for the ADP-ribosilation reaction in vitro.
2 which represents the autoradiogram of an electrophoretic gel obtained from said membrane cellular fraction.
Column 1P derives from the retinas of the control group rats, column 2P derives from the retinas of the diabetic rats and column 3P derives from the retinas of the diabetic rats treated with silybin at a 50 mg/kg dose.

[5] = system: 5 YSY neuroblastoma; test: Neuritogenesis after retinoic acid in neuroblastoma cells cultured in chronic hyperglucosemia (in vitro diabetic neuropathy model); format: cell-based; details: substance 10⁻⁵ M; for Percentage of cells with neurits after retinoic acid addition: glucose 30 mM for three weeks
Description: A diabetic neuropathy in vitro model has been carried out using neuroblastoma cells cultured in chronic hyperglucosemia conditions. This condition causes the typical diabetes mellitus dismetabolic effects as the polyols (sorbitol) accumulation, the myoinositol reduction and the reduction of the Na pump functionality. […] A. Shahar et al. - Alan R., Liss.
In the groups from 2) to 4) glucose (30 mM) has been added to the culture renewing the culture medium and then adding glucose every 72 hours, during a three weeks period.
In the group 3), at the same time of the glucose, one of the substances inhibiting proteic ADP-ribosilation reported in the table 1 (amount 10⁻⁵ M) has been added.
In the group 4), at the same time of the glucose one of the substances non inhibiting proteic ADP-ribosilation reported in the table 1 (dermatan sulphate and tolrestat) in amount 10⁻⁵ M has been added.
Subsequently retinoic acid (5 x 10⁻⁶ M) has been added to the cultures 1) to 4) for causing the cells neuritogenesis which has been valued by the observation at the optic microscope considering as neurit the cytoplasmatic extension having a length corresponding at least to twice as the diameter of the cell.

[6] = 10 mg/kg daily (vitamin K1, dermatansulphate intraperitoneal; arachidic acid oral), 8 weeks after induction
[7] = 24 hours after ligature, 10 mg/kg daily (vitamin K1, dermatansulphate intraperitoneal; arachidic acid oral)
[8] = proximal segment above P1, 24 hours after ligature, 10 mg/kg daily (vitamin K1, dermatansulphate intraperitoneal; arachidic acid oral)
[9] = second experiment, oral 50 mg/kg/die

| Molecule | Myoinositol Incorporation [1] | Myoinositol Accumulation [1] | also measured |
| --- | --- | --- | --- |
| O=C1NC(=O)c2cccc3cccc1c23 [1.8 Naphthalimide, 1.8-naphthalimide] | 0.91 n mol/µg of protein | 9.20 n mol/µg of protein | – |
| O=c1[nH]c2ccc([N+](=O)[O-])cc2c2ccccc12 [2-nitro-(6(5H)-phenanthridinone, 2-nitro-6(5H)-phenanthridinone] | 0.81 n mol/µg of protein | 8.51 n mol/µg of protein | – |
| Nc1ccc2c3c(cccc13)C(=O)NC2=O [4-amino-1.8-naphthalimide] | 0.78 n mol/µg of protein | 8.01 n mol/µg of protein | – |
| CC(=CCC1=C(C)C(=O)c2ccccc2C1=O)CCCC(C)CCCC(C)CCCC(C)C (stereo not drawn) [Vit K1, vitamin K1] | 0.98 n mol/µg of protein | 9.66 n mol/µg of protein | Body weight [2]: 244±12.6 gr.; Glycemia [2]: 438 ± 6.4 mg/dL; anterograde and retrograde accumulation of substance P, in words [3]: normalized; substance P content, NSc [3, 6]: 1.28±0.008 ng/mg of tissular protein; substance P content, D [3, 7]: 1.96±0.08 ng/mg of tissular protein; substance P content, P2 [3, 8]: 2.44±0.09 ng/mg of tissular protein; substance P content, P1 [3, 7]: 8.72±0.16 ng/mg of tissular protein |
| CC1=CC(=O)c2ccccc2C1=O [Vit K3, vitamin K3] | 0.85 n mol/µg of protein | 8.56 n mol/µg of protein | – |
| CCCCCCCCCCCCCCCCCCCC(=O)O [arachidic acid] | 0.92 n mol/µg of protein | 9.02 n mol/µg of protein | Body weight [2]: 239±12.6 gr.; Glycemia [2]: 471 ± 9.4 mg/dL; anterograde and retrograde accumulation of substance P, in words [3]: normalized; substance P content, NSc [3, 6]: 1.24±0.006 ng/mg of tissular protein; substance P content, D [3, 7]: 1.80±0.06 ng/mg of tissular protein; substance P content, P2 [3, 8]: 1.40±0.05 ng/mg of tissular protein; substance P content, P1 [3, 7]: 9.44±0.14 ng/mg of tissular protein |
| O=c1cc(-c2ccccc2)oc2ccccc12 [flavone] | 0.67 n mol/µg of protein | 6.54 n mol/µg of protein | – |
| CCCCC/C=C\C/C=C\CCCCCCCC(=O)O [linoleic acid (C18:2-cis-9.12), linoleic acid] | 0.88 n mol/µg of protein | 8.66 n mol/µg of protein | – |
| CC/C=C\C/C=C\C/C=C\CCCCCCCC(=O)O [linolenic acid (C18:3-cis-9.12.15), linolenic acid] | 0.81 n mol/µg of protein | 8.44 n mol/µg of protein | – |
| CCCCCCCCCCCCCC(=O)O [myristic acid] | 0.85 n mol/µg of protein | 8.91 n mol/µg of protein | – |
| CO[C@@H]1[C@@H](OC(N)=O)[C@@H](O)[C@H](Oc2ccc3c(O)c(NC(=O)c4ccc(O)c(CC=C(C)C)c4)c(=O)oc3c2C)OC1(C)C [novobiocin] | 0.60 n mol/µg of protein | 6.0 n mol/µg of protein | – |
| CCCCCCCCCCCCCCCC(=O)O [palmitic acid] | 0.89 n mol/µg of protein | 9.39 n mol/µg of protein | – |
| COc1cc(C2Oc3cc([C@H]4Oc5cc(O)cc(O)c5C(=O)[C@@H]4O)ccc3OC2CO)ccc1O (stereo partly drawn) [silybin] | – | – | transducin ribosilability, in words [4]: maintained; substance P content, NSc [3, 9]: 2.26±0.040 ng/mg of tissular protein; substance P content, D [3, 9]: 4.05±0.071 ng/mg of tissular protein; substance P content, P2 ([3]; second experiment, proximal segment above P1, oral 50 mg/kg/die): 7.07±0.59 ng/mg of tissular protein; substance P content, P1 [3, 9]: 11.42±0.18 ng/mg of tissular protein |
| CCCCCCCCCCCCCCCCCC(=O)O [stearic acid] | 0.95 n mol/µg of protein | 9.89 n mol/µg of protein | – |
| COc1ccc2c(C(=S)N(C)CC(=O)O)cccc2c1C(F)(F)F [tolrestat] | – | – | prevention of the diabetic neuropathy (neuritogenesis), in words ([5]; glucose 30 mM): does not exercise any effect for preventing the diabetic neuropathy |
| vitamin K2 [Vit K2] | 0.88 n mol/µg of protein | 8.99 n mol/µg of protein | Percentage of cells with neurits after retinoic acid addition ([5]; 3 days in retinoic acid): 45%; Percentage of cells with neurits after retinoic acid addition ([5]; 7 days in retinoic acid): 65%; Percentage of cells with neurits after retinoic acid addition ([5]; 12 days in retinoic acid): 98% |
